Laboratory results taken from BindingDB's records for doi:10.1021/jm000275p (Merck Research Laboratories, 2001).

How the values were obtained:
[1] = biological target: Gonadotropin-releasing hormone receptor (Macaca mulatta); assay: In vitro inhibition of gonadotropin-releasing hormone receptor in rhesus monkey
[2] = biological target: Gonadotropin-releasing hormone receptor (Canis familiaris); assay: In vitro inhibition of binding to gonadotropin-releasing hormone receptor in dog
[3] = biological target: Gonadotropin-releasing hormone receptor (Macaca mulatta); assay: Functional antagonism at the rhesus monkey gonadotropin-releasing hormone receptor
[4] = biological target: Gonadotropin-releasing hormone receptor (Canis familiaris); assay: Functional antagonism at gonadotropin-releasing hormone receptor in dog (PI turnover)

Cc1cc(-c2c(OCC[C@@H]3CCN3)c3cc(C(=O)Nc4ccncn4)c(Cl)cc3[nH]c2=O)cc(C)c1C [4-(2-Azetidin-2-yl-ethoxy)-7-chloro-2-oxo-3-(3,4,5-trimethyl-phenyl)-1,2-dihydro-quinoline-6-carboxylic acid pyrimidin-4-ylamide]
IC50 [1]: 0.5 nM
IC50 [2]: 60 nM
IC50 [3]: 7 nM
IC50 [4]: 350 nM
